This is an account of results in patent US20070117858A1, “SUBSTITUTED 5-HETEROARYL-1-PHENYL-PYRAZOLE CANNABINOID MODULATORS” (priority 2005, published 2007).

One experiment addresses T1, human CB1 receptor (Homo sapiens, UniProt P21554).
T1 construct: expressed in transfected cells; host or cells: SK-N-MC cells, stably transfected with pcDNA3 CB-1 (human); semi-purified membrane pellet
In words: Cannabinoid CB1 receptor binding assay ([3H]-CP-55,940 displacement, SK-N-MC cell membranes). Particulars: for inhibition at 0.2 µM: 1.5 h, read-out: Cannabinoid CB1 Receptor Binding, percent inhibition. The procedure:
(§1) Binding Assay for CB1 or CB2 Agonists or Inverse Agonists
(§2) The human CB1 and CB2 receptors were stably expressed in SK-N-MC cells transfected with pcDNA3 CB-1 (human) or pcDNA3 CB-2 (human). The cells were grown in T-180 cell culture flasks under standard cell culture conditions at 37° C. in a 5% CO2 atmosphere. The cells were harvested by trysinization and homogenized in a homogenization buffer (10 mM Tris, 0.2 mM MgCl2, 5 mM KCl, with protease inhibitors aprotinin, leupeptin, pepstatin A and bacitracin) and centrifuged (2000 g). The supernatant was then centrifuged in 2M sucrose (31,300 g) to produce a semi-purified membrane pellet. The pellet was resuspended in homogenization and stored at −80° C.
(§3) On the day of the assay, the pellet was thawed on ice and diluted in assay buffer (50 mM Tris-HCl, 5 mM MgCl2, 2.5 mM EDTA, 0.5 mg/mL fatty acid free bovine serum albumin, pH 7.5). The diluted membrane pellet was added with buffer, either a test compound or vehicle standard and the radioligand […] (0.2 nM) to the wells of a 96-well polypropylene plate. Non-specific binding was measured in wells containing W1N 55,212 (10 uM). The plate was covered and incubated for 90 minutes at 30° C. The contents were then aspirated onto a Packard Unifilter GF/C filter bottom plate prewet with 0.5% polyethyleneimine. The wells of the polypropylene plate were rinsed and aspirated seven times with a 0.9% saline-0.5% Tween 20 solution. The Unifilter plate was dried, scintillation cocktail was added to each well and the counts representing binding were quantitated in a TopCount scintillation counter.
(§4) For compounds tested, an IC50 binding value was obtained from percent inhibition studies in which various test concentrations were used. The binding value was calculated by linear regression.
(§5) For compounds without an IC50 binding value, the percent inhibition (%) was obtained at a test concentration of 0.2 μM.

In the next experiment the target is T2, human CB2 receptor (Homo sapiens, UniProt P34972).
T2 construct: expressed in transfected cells; host or cells: SK-N-MC cells, stably transfected with pcDNA3 CB-2 (human); semi-purified membrane pellet
T2 sequence (P34972 whole entry): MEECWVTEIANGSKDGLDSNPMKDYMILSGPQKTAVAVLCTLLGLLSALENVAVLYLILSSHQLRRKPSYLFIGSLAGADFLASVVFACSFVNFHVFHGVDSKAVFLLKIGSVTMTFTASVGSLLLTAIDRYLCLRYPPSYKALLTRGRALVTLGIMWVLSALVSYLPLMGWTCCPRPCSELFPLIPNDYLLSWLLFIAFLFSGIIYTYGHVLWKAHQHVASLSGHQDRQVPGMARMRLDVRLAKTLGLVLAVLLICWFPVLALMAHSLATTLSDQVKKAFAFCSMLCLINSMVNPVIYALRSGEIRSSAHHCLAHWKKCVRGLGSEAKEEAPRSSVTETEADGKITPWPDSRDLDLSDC
In words: Cannabinoid CB2 receptor binding assay ([3H]-CP-55,940 displacement, SK-N-MC cell membranes). Particulars: 1.5 h; test concentration of 0.2 μM; radioligand CP-55,940 0.2 nM; read-out: Cannabinoid CB2 Receptor Binding, percent inhibition. The method, then: as §1, §2, §3, §4, §5

pIC50: −log10 of the molar value.

T1 sequence (P21554 whole entry): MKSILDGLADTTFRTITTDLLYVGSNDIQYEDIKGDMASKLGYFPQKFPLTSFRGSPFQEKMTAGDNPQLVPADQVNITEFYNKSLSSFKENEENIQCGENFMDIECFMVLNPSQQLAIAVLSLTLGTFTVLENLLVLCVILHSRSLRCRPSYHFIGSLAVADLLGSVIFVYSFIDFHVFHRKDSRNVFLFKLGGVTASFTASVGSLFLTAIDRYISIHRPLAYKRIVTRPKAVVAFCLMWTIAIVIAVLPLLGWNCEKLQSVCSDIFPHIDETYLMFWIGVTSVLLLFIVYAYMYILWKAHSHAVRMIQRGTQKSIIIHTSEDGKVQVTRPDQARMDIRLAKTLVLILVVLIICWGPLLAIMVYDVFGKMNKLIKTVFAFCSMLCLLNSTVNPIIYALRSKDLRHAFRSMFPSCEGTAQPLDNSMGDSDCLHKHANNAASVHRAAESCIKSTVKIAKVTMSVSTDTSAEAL

The term pIC50 denotes −log10 of the IC50, conventionally taken in molar units. In general, inhibition refers to the drop in the measured response relative to a control, in per cent. On human CB1 receptor, `Cc1c(C(=O)NN2CCCCC2)nn(-c2ccc(Cl)cc2Cl)c1-c1ccc(Br)s1` [Cpd 22, 5-(5-bromo-thiophen-2-yl)-1-(2,4-dichloro-phenyl)-4-methyl-1H-pyrazole-3-carboxylic acid piperidin-1-ylamide] had a pIC50 of 7.43. For the same compound, the inhibition at 0.2 µM at human CB2 receptor came to 42%.

For `N#Cc1c(C(=O)NN2CCCCC2)nn(-c2ccc(Cl)cc2Cl)c1-c1ccc(Cl)s1` [Cpd 23, 5-(5-chloro-thiophen-2-yl)-4-cyano-1-(2,4-dichloro-phenyl)-1H-pyrazole-3-carboxylic acid piperidin-1-ylamide], at human CB1 receptor, the negative logarithm of the IC50 (pIC50) is 7.15. On human CB2 receptor, the inhibition at 0.2 µM is 22%.

In the case of `C[C@@H](NC(=O)c1nn(-c2ccc(Cl)cc2Cl)c(-c2ccc(Cl)s2)c1C#N)C1CCCCC1` [Cpd 24, 5-(5-chloro-thiophen-2-yl)-4-cyano-1-(2,4-dichloro-phenyl)-1H-pyrazole-3-carboxylic acid [(1R)-1-cyclohexyl-ethyl]-amide], the pIC50 at human CB1 receptor was 7.82. Further, the inhibition at 0.2 µM at human CB2 receptor came out at 13%.

`C[C@@H](NC(=O)c1nn(-c2ccc(Cl)cc2Cl)c(-c2ccc(Cl)s2)c1C#N)c1ccccc1` [Cpd 25, 5-(5-chloro-thiophen-2-yl)-4-cyano-1-(2,4-dichloro-phenyl)-1H-pyrazole-3-carboxylic acid [(1R)-1-phenyl-ethyl]-amide] gave a negative logarithm of the IC50 (pIC50) at human CB1 receptor of 7.80. Further, the inhibition at 0.2 µM at human CB2 receptor is 13%.

`C[C@H](NC(=O)c1nn(-c2ccc(Cl)cc2Cl)c(-c2ccc(Cl)s2)c1C#N)c1ccccc1` [Cpd 26, 5-(5-chloro-thiophen-2-yl)-4-cyano-1-(2,4-dichloro-phenyl)-1H-pyrazole-3-carboxylic acid [(1S)-1-phenyl-ethyl]-amide] had a pIC50 on human CB1 receptor of 6.96. Moreover, the inhibition at 0.2 µM on human CB2 receptor came out at 16%.

For `C[C@@H](NC(=O)c1nn(-c2ccc(Cl)cc2Cl)c(-c2ccc(Cl)s2)c1C#N)c1ccccn1` [Cpd 27, 5-(5-chloro-thiophen-2-yl)-4-cyano-1-(2,4-dichloro-phenyl)-1H-pyrazole-3-carboxylic acid [(1R)-1-pyridin-2-yl-ethyl]-amide], the results for the inhibition at 0.2 µM on human CB1 receptor and at human CB2 receptor were 69% and 12%, respectively.

On to `Cc1c(C(=O)NN2CCCCC2)nn(-c2ccc(Cl)cc2Cl)c1-c1ccc(F)s1` [Cpd 28, 1-(2,4-dichloro-phenyl)-5-(5-fluoro-thiophen-2-yl)-4-methyl-1H-pyrazole-3-carboxylic acid piperidin-1-ylamide], for which the inhibition at 0.2 µM at human CB1 receptor was found to be 69%; at human CB2 receptor it was 20%.

For the compound `Cc1c(C(=O)NN2CCCCC2)nn(-c2ccc(Cl)cc2Cl)c1-c1ccc(I)s1` [Cpd 29, 1-(2,4-dichloro-phenyl)-5-(5-iodo-thiophen-2-yl)-4-methyl-1H-pyrazole-3-carboxylic acid piperidin-1-ylamide], on human CB1 receptor, the pIC50 was 7.77. In addition, on human CB2 receptor, the inhibition at 0.2 µM is 55%.

`Cc1c(C(=O)NN2CCCCC2=O)nn(-c2ccc(Cl)cc2Cl)c1-c1ccc(Cl)s1` [Cpd 30, 5-(5-chloro-thiophen-2-yl)-1-(2,4-dichloro-phenyl)-4-methyl-1H-pyrazole-3-carboxylic acid (2-oxo-piperidin-1-yl)-amide]: the inhibition at 0.2 µM was 17% at human CB1 receptor and 15% at human CB2 receptor.

Consider `Cc1c(C(=O)N[C@@H](C)c2ccccc2)nn(-c2ccc(Cl)cc2Cl)c1-c1ccc(F)s1` [Cpd 31, 1-(2,4-dichloro-phenyl)-5-(5-fluoro-thiophen-2-yl)-4-methyl-1H-pyrazole-3-carboxylic acid [(1S)-1-phenyl-ethyl]-amide], for which the inhibition at 0.2 µM at human CB1 receptor amounted to 64%; on human CB2 receptor, 39%.

Regarding `Cc1c(C(=O)N[C@H](C)c2ccccc2)nn(-c2ccc(Cl)cc2Cl)c1-c1ccc(F)s1` [Cpd 32, 1-(2,4-dichloro-phenyl)-5-(5-fluoro-thiophen-2-yl)-4-methyl-1H-pyrazole-3-carboxylic acid [(1R)-1-phenyl-ethyl]-amide], on human CB1 receptor, the pIC50 is 7.34. The inhibition at 0.2 µM on human CB2 receptor came out at 55%.

As for `Cc1c(C(=O)N[C@@H](C)C2CCCCC2)nn(-c2ccc(Cl)cc2Cl)c1-c1ccc(F)s1` [Cpd 33, 1-(2,4-dichloro-phenyl)-5-(5-fluoro-thiophen-2-yl)-4-methyl-1H-pyrazole-3-carboxylic acid [(1S)-1-cyclohexyl-ethyl]-amide], the inhibition at 0.2 µM was determined as 73% at human CB1 receptor and 41% on human CB2 receptor.

`Cc1c(C(=O)N[C@@H](C)c2ccccn2)nn(-c2ccc(Cl)cc2Cl)c1-c1ccc(F)s1` [Cpd 34, 1-(2,4-dichloro-phenyl)-5-(5-fluoro-thiophen-2-yl)-4-methyl-1H-pyrazole-3-carboxylic acid [(1S)-1-pyridin-2-yl-ethyl]-amide]: the inhibition at 0.2 µM at human CB1 receptor was 61%; at human CB2 receptor, 34%.

At human CB1 receptor, `CCc1c(C(=O)NN2CCCCC2)nn(-c2ccc(Cl)cc2Cl)c1-c1ccc(Br)s1` [Cpd 35, 5-(5-bromo-thiophen-2-yl)-1-(2,4-dichloro-phenyl)-4-ethyl-1H-pyrazole-3-carboxylic acid piperidin-1-ylamide] showed a negative logarithm of the IC50 (pIC50) of 7.89. In addition, the inhibition at 0.2 µM at human CB2 receptor turned out to be 29%.

Regarding `CCc1c(C(=O)N[C@H](C)c2ccccc2)nn(-c2ccc(Cl)cc2Cl)c1-c1ccc(Br)s1` [Cpd 40, 5-(5-bromo-thiophen-2-yl)-1-(2,4-dichloro-phenyl)-4-ethyl-1H-pyrazole-3-carboxylic acid [(1R)-1-phenyl-ethyl]-amide], the inhibition at 0.2 µM was 78% at human CB1 receptor and 52% on human CB2 receptor.

On to `CCc1c(C(=O)N[C@@H](C)c2ccccn2)nn(-c2ccc(Cl)cc2Cl)c1-c1ccc(Br)s1` [Cpd 41, 5-(5-bromo-thiophen-2-yl)-1-(2,4-dichloro-phenyl)-4-ethyl-1H-pyrazole-3-carboxylic acid [(1S)-1-pyridin-2-yl-ethyl]-amide], for which, on human CB1 receptor, the pIC50 was 7.82. Also, on human CB2 receptor, the inhibition at 0.2 µM amounted to 45%.

With `CCc1c(C(=O)N[C@@H](C)c2ccccc2)nn(-c2ccc(Cl)cc2Cl)c1-c1ccc(Br)s1` [Cpd 42, 5-(5-bromo-thiophen-2-yl)-1-(2,4-dichloro-phenyl)-4-ethyl-1H-pyrazole-3-carboxylic acid [(1S)-1-phenyl-ethyl]-amide], the pIC50 on human CB1 receptor was 7.96. In addition, the inhibition at 0.2 µM on human CB2 receptor amounted to 38%.

On to `CCc1c(C(=O)N[C@@H](C)C2CCCCC2)nn(-c2ccc(Cl)cc2Cl)c1-c1ccc(Br)s1` [Cpd 43, 5-(5-bromo-thiophen-2-yl)-1-(2,4-dichloro-phenyl)-4-ethyl-1H-pyrazole-3-carboxylic acid [(1S)-1-cyclohexyl-ethyl]-amide], for which, at human CB1 receptor, the pIC50 is 8.10. Besides, the inhibition at 0.2 µM on human CB2 receptor was determined as 39%.

On to `Cc1c(C(=O)NN2CCCCC2)nn(-c2ccc(Cl)cc2Cl)c1-c1cc(Br)cs1` [Cpd 44, 5-(4-bromo-thiophen-2-yl)-1-(2,4-dichloro-phenyl)-4-methyl-1H-pyrazole-3-carboxylic acid piperidin-1-ylamide], for which the inhibition at 0.2 µM on human CB1 receptor is 74%; at human CB2 receptor, 53%.

With `Cc1c(C(=O)N2CCCCC2)nn(-c2ccc(Cl)cc2Cl)c1-c1cc(Br)cs1` [Cpd 45, [5-(4-bromo-thiophen-2-yl)-1-(2,4-dichloro-phenyl)-4-methyl-1H-pyrazol-3-yl]-piperidin-1-yl-methanone], the inhibition at 0.2 µM on human CB1 receptor stood at 33%; at human CB2 receptor it was 12%.

As to `Cc1c(C(=O)N[C@@H](C)c2ccccc2)nn(-c2ccc(Cl)cc2Cl)c1-c1cc(Br)cs1` [Cpd 46, 5-(4-bromo-thiophen-2-yl)-1-(2,4-dichloro-phenyl)-4-methyl-1H-pyrazole-3-carboxylic acid [(1S)-1-phenyl-ethyl]-amide], the inhibition at 0.2 µM came to 52% on human CB1 receptor and 47% at human CB2 receptor.

`Cc1c(C(=O)N[C@@H](C)c2ccccn2)nn(-c2ccc(Cl)cc2Cl)c1-c1cc(Br)cs1` [Cpd 47, 5-(4-bromo-thiophen-2-yl)-1-(2,4-dichloro-phenyl)-4-methyl-1H-pyrazole-3-carboxylic acid [(1S)-1-pyridin-2-yl-ethyl]-amide]: the inhibition at 0.2 µM at human CB1 receptor was determined as 56%; on human CB2 receptor, 46%.

`Cc1c(C(=O)N[C@@H](C)C2CCCCC2)nn(-c2ccc(Cl)cc2Cl)c1-c1cc(Br)cs1` [Cpd 48, 5-(4-bromo-thiophen-2-yl)-1-(2,4-dichloro-phenyl)-4-methyl-1H-pyrazole-3-carboxylic acid [(1S)-1-cyclohexyl-ethyl]-amide]: the inhibition at 0.2 µM on human CB1 receptor is 60%; at human CB2 receptor, 49%.
